One block for each molecule: values may come before it.
Assays:
Format in all cases: biochemical
IAPP = molecular target: T1, IAPP (Homo sapiens, UniProt P10997); test: CD analysis of IAPP fibril formation (Example 4); parameters: add 10 μL of 10 mg/mL IAPP stock solution (final 100 ng peptide)
T1 sequence (P10997 34-70 limits assumed): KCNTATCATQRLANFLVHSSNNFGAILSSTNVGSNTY

Aβ42 = molecular target: T2, Aβ42 (Homo sapiens, UniProt P05067); test: Solubility assay using Bradford detection (Aβ fibril formation); settings: roughly 1:10 peptide:compound, overnight at room temperature, 10 mM phosphate buffer pH 7
T2 construct: Stock solution of Aβ42 or Aβ40 peptide at 5 mg/ml in distilled water, pH 7; made in house; host or cells: chemical synthesis (FMOC), HPLC purified
T2 sequence (P05067 672-713 limits assumed): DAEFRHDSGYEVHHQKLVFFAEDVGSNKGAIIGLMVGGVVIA
Method: Alternatively, peptides can also be obtained from a number of commercial sources (e.g., BaChem and Peninsula Laboratories, California). The assay was conducted as follows. Stock solution of Aβ42 or Aβ40 peptide at 5 mg/ml in distilled water, pH 7, and stock solutions of each test compound at 2 mg/ml in distilled water, pH 7 were prepared. • 1. Mix 5 μl (25 μg) of stock Aβ and 12.5 μl (25 μg) of stock test compounds into 1000 μl of 10 mM phosphate buffer, pH 7. This provides a molar ratio of roughly 1:10 [ peptide:compound] assuming a general molecular weight of 400 daltons for the test compounds. Control samples were prepared for both peptide and compound. These contained Aβ only using both 25 μg (5 μl stock Aβ) and 50 μg ([…]) to provide a standard curve for each run. Test compound controls contained 25 μg of material (12.5 μl of stock). All samples were mixed in 1000 μl of 10 mM phosphate buffer, pH 7 to final volume of 1017.5 μl. • 2. Incubate all samples overnight at room temperature without mixing. • 3. Spin at 14,000 rpm for 10 min in table top Eppendorf microfuge. • 4. Take 800 μl of supernatant. • 5. Add 200 μl of Bradford reagent (purchased from BioRad). • 6. Mix well by vortexing. • 7. Read at OD595 nm.

Aβ(1-40) = molecular target: T3, Aβ(1-40) (Homo sapiens, UniProt P05067); test: Circular dichroism analysis, pre-incubation assay, β-sheet at 218 nm; settings: CD 218 nm, 0.02M Tris pH 7.4
T3 construct: Prepare a fresh 40 μm solution of Aβ(1-40) in 0.02M Tris, pH 7.4; made in house; host or cells: chemical synthesis (FMOC), HPLC purified
T3 sequence (P05067 672-711 limits assumed): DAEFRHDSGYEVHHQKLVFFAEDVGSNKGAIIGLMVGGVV
Method: The assay is conducted as follows:
Instrument: JASCO J-715 Spectropolarimeter.
Cell/cuvette: Hellma quartz (QS) with 1.0 mm pathlength Room temperature. Wavelength interval: 250 nm-190 nm.
Band width: 1.0 nm Response time: 1 sec Scanning speed: 20 nm/min Number of accumulations/spectrum: 5
1. Prepare a fresh 40 μm solution of Aβ(1-40) in 0.02M Tris, pH 7.4.
2. Prepare a 1 mM solution of test compounds in 0.02M Tris, pH 7.4.
3. Combine equal volumes of the Aβ(1-40) and test compound solutions.
4. Incubate the mixtures for 19 h.
5. Take the CD spectrum using the parameters above.
6. Return the mixtures to the incubator and incubate to 43 h.
7. Take the CD spectrum using the parameters above. • Inhibition of Aβ40 assembly/aggregation is determined by comparing the amount of b-sheet structure) appearing at lambda=218 nm) obtained in control and in treated sample at each timepoint.

Aβ42 peptide = molecular target: T4, Aβ42 peptide (Homo sapiens, UniProt P05067); test: ELISA solubility assay (Aβ fibril formation); settings: 1:10 peptide:compound, overnight at room temperature, 10 mM phosphate buffer
T4 construct: Stock solution of Aβ42 or Aβ40 peptide at 5 mg/ml in distilled water, pH 7; made in house; host or cells: chemical synthesis (FMOC), HPLC purified
T4 sequence (P05067 672-713 limits assumed): as the sequence (P05067 672-713 limits assumed) above
Method: The assay was conducted as follows. Stock solution of Aβ42 peptide at 5 mg/ml in distilled water, pH 7, and stock solutions of each test compound at 1 mg/ml in distilled water, pH 7 were prepared. • 1. A 10 μg sample of peptide was mixed with compound at a molar ratio of 1:10 [ peptide:compound] in 500 μl of 10 mM phosphate buffer. Control samples contained peptide only. • 2. The mixture was incubated overnight at room temperature without agitation. • 3. The incubated mixture was centrifuged at 14,000 rpm (Eppendorf microfuge) for 5 minutes to separate the soluble peptide. • 4. 400 μl aliquots of supernatant were removed for ELISA assay.
ELISA • 1. 100 μl of prepared samples were coated in 96 wells NUNC microplates (each sample tested in triplicate) • 2. The plate was incubated at 37° C. for 3 hours, then at 4° C. overnight. • 3. The wells were washed twice with 0.05% Tween 20 in phosphate buffered saline. • 4. 250 μl of 3% skim milk powder in PBS was used to block non-specific binding to the wells (at 37° C. for 1.5 hours) • 5. The wells were washed with 0.05% Tween 20/PBS twice. • 6. A 100 μl aliquot of diluted (final dilution 1:100 in PBS) mouse monoclonal anti-Aβ antibody (purchased from DAKO recognizing the N-terminal residues 1-10) was added to each well. The antibody was then incubated at 37 C for 2 Hours. • 7. The wells were washed with 0.05% Tween 20/PBS six times (5 min/wash). • 8. Visualization was performed using 100 μl of diluted goat anti-mouse IgG (H^+ L) conjugated with alkaline phosphatase (purchased from BioRad) was added to each well. The plate was incubated at 37° C. for 1 hour. • 9. The wells were washed with 0.05% Tween 20/PBS six times (5 min/wash). • 10. The color reaction was developed using 100 μl of alkaline phosphatase substrate (purchased from BioRad) which was added to each well. • 11. The relative amounts of Aβ were obtained by measuring the OD of the sample at 405 nm using a standard ELISA plate reader.
Compounds were characterized as “active” if 40-50% of Aβ42 remained in the supernatant.

Compound: C=CC(=O)NC(C)(C)CS(=O)(=O)O [XXI, 2-acrylamido-2-methyl-1-propanesulfonic acid]
Aβ42 remaining in the supernatant (activity class) (Aβ42 peptide): Active

Compound: CC12CC3CC(C)(C1)CC(NCCCS(=O)(=O)O)(C3)C2 [XXIV, 3-[(−3,5-dimethyl-1-adamantyl)-amino]-1-propanesulfonic acid]
Aβ42 remaining in the supernatant (activity class) (Aβ42 peptide): Active

Compound: Cc1ccc2nc(-c3ccc(N=NNc4ccc(-c5nc6ccc(C)c(S(=O)(=O)[O-])c6s5)cc4)cc3)sc2c1S(=O)(=O)[O-].[Na+].[Na+] [XXVIII, Thiazol Yellow G]
Aβ42 remaining in the supernatant (activity class) (Aβ42 peptide): Active

Results, then the molecule that gave them:

Activity (preventing or inhibiting IAPP fibril formation) (IAPP): Active
Compound: O=S(=O)(O)CCCNC1(CO)CCCC1 [XLII, 3-(1-hydroxymethyl-1-cyclopentyl)amino-1-propanesulfonic acid]

Aβ42 remaining in the supernatant (activity class) (Aβ42): Active | relative inhibition compared to Aβ alone, incubation time 0 h (Aβ(1-40)): —^1, 2 (No effect compared to Aβ alone) | relative inhibition compared to Aβ alone, incubation time 19 h (Aβ(1-40)): + (+: 0-25%) | relative inhibition compared to Aβ alone, incubation time 43 h (Aβ(1-40)): ++ (++: 25-50%)
Compound: O=S(=O)(O)CCCN1CCc2ccccc2C1 [XVII, 3-[2-(1,2,3,4-tetrahydroisoquinolinyl)]-1-propanesulfonic acid]

Aβ42 remaining in the supernatant (activity class) (Aβ42): Very active
Compound: COc1cc(-c2ccc(N=Nc3ccc4c(S(=O)(=O)[O-])cc(S(=O)(=O)[O-])c(N)c4c3O)c(OC)c2)ccc1N=Nc1ccc2c(S(=O)(=O)[O-])cc(S(=O)(=O)[O-])c(N)c2c1O.[Na+].[Na+].[Na+].[Na+] [XXIX, Chicago Sky Blue 6B]

relative inhibition compared to Aβ alone, incubation time 0 h (Aβ(1-40)): — (No effect compared to Aβ alone) | relative inhibition compared to Aβ alone, incubation time 19 h (Aβ(1-40)): +++ (+++: 50-75%) | relative inhibition compared to Aβ alone, incubation time 43 h (Aβ(1-40)): ++ (++: 25-50%) | Activity (preventing or inhibiting IAPP fibril formation) (IAPP): Active
Compound: CC(CCCO)NCCCS(=O)(=O)O (stereo not drawn) [XXXVIII, 3-[(dl)-5-hydroxy-2-pentyl]amino-1-propanesulfonic acid]
